According to US11406720B2, “Fibroblast growth factor receptor 2-specific peptide reagents and methods” (THE REGENTS OF THE UNIVERSITY OF MICHIGAN, priority 2017, dated 2022):
Entries after “also recorded” stand apart in the source; their conditions may differ. Where no end group is shown, it is not given here.

Assays:
[1] = tested on: phosphorylation of FGFR2 (p-FGFR), AKT (p-AKT) and ERK (p-ERK) in QhTERT cells that express FGFR2b; test: Effect on cell signaling, Western blot, FGFR2b cells; assay type: cell-based, human; settings: peptide 5 or 100 μM, FGF1 100 ng/mL, 20 min, vs untreated cells
Protocol: (§1) QhTERT cells that overexpress either FGFR2b or FGFR2c were seeded in 12-well flat-bottom plates with 500 μL of serum-free medium for 16 hours. FGF1 (#2232-FA-025, R&D systems) was reconstituted to a concentration of 100 μg/mL using PBS, diluted with 0.1% bovine serum albumin, and added to the cells at final concentrations of 100 ng/mL for 20 min in separate wells. Heparin (#H3149-10KU, Sigma) with final concentration of 100 unit/mL was also added to increase stability. In addition, peptides at concentrations of 5 and 100 μM were incubated for 20 min in separate wells. The cells were washed with PBS and lysed in RIPA buffer containing protease inhibitors (#11836170001, Roche, Basel, Switzerland). Lysates were separated by gel electrophoresis, transferred to polyvinylidene difluoride membranes (#ISEQ00010, Millipore), and detected by immunoblotting using an enhanced chemiluminescence system (#RPN2106, GE Healthcare). Anti-FGFR2 antibody (#SC 122, Santa Cruz Biotechnology), anti-phospho-FGFR (#3471, Cell Signaling Technology), anti-AKT (#4691P, Cell Signaling Technology), anti-ERK1/2 (#4695P, Cell Signaling Technology), anti-phospho-AKT (pS473; #4060P, Cell Signaling Technology), anti-phospho-ERK1/2 (#4370P, Cell Signaling Technology), and anti-tubulin (#32-2600, Invitrogen) were used as per manufacturer's instructions.

[2] = tested on: phosphorylation of FGFR2 (p-FGFR), AKT (p-AKT) and ERK (p-ERK) in QhTERT cells that express FGFR2c; test: Effect on cell signaling, Western blot, FGFR2c cells; assay type: cell-based, human; settings: peptide 5 or 100 μM, FGF1 100 ng/mL, 20 min, vs untreated cells
Protocol: as §1

[3] = target: T1, QhTERT cells that express FGFR2c (Homo sapiens, UniProt P21802); test: Competition for reagent binding with unlabeled peptide (confocal microscopy); settings: unlabeled peptide 50 μM and greater (up to 500 μM) vs 0 μM; 5 μM SRR*-Cy5.5; 4° C
T1 construct: expressed in transfected cells; host or cells: QhTERT (human non-dysplastic Barrett's esophagus cells immortalized with hTert)
Protocol: We administered unlabeled SRR*, and used confocal microscopy to observe competition for binding of SRR*-Cy5.5 to QhTERT cells that express FGFR2c, FIG. 3A-L. Approximately 10^3 cells were grown to ˜70% confluence on cover glass in triplicate. Unlabeled peptides at concentrations of 0, 50, 100, 150, 250, and 500 μM were incubated with the cells for 30 min at 4° C. The cells were washed and incubated with 5 μM of the target peptide for another 30 min at 4° C. The cells were washed and fixed with 4% PFA for 5 min. The cells were washed with PBS and mounted with ProLong Gold reagent containing DAPI (Invitrogen).

[4] = target: T1, QhTERT cells that express FGFR2c; test: Apparent association time constant by flow cytometry; assay type: binding; settings: for apparent association time constant k: 5 μM, RT, 0 to 30 min; for time scale for onset of binding: from k
Protocol: We measured the apparent association time constant of the peptide reagent to QhTERT/FGFR2c cells to assess binding onset.^46 Cells were grown to ˜80% confluence in 10 cm dishes, and detached with PBS-based cell dissociation buffer (Invitrogen). Cells (˜10^5) were incubated with 5 μM SRR-Cy5.5 at RT for various time intervals ranging from 0 to 30 min. The cells were centrifuged, and washed with cold PBS. Flow cytometry analysis was performed as described above, and the median fluorescence intensity (y) were measured on flow cytometry at different time points (t) using Flowjo software. The rate constant k was calculated by fitting the data to a first order kinetics model, y(t)=Imax[1−exp^(−kt)], where Imax=maximum value using Prism 5.0 software (GraphPad Inc).

[5] = target: T2, QhTERT cells that express FGFR2b (Homo sapiens, UniProt P21802); test: Confocal fluorescence microscopy, binding to QhTERT cells expressing FGFR2b
T2 construct: expressed in transfected cells; host or cells: QhTERT (human non-dysplastic Barrett's esophagus cells immortalized with hTert)
Excerpt: (§2) All human esophagus specimens were obtained with written, informed patient consent per approval and guidelines of the University of Michigan Institutional Review Board (IRB). Human non-dysplastic Barrett's esophagus (BE) cells immortalized with hTert (QhTERT) were obtained from the American Type Culture Collection (ATCC) and cultured in keratinocyte-serum free medium containing bovine pituitary extract and human recombinant EGF (ThermoFisher #17005042). QhTERT cells with stable expression of FGFR2b or FGFR2c were provided by DGB. We cultured these cells with keratinocyte-serum free medium containing bovine pituitary extract and human recombinant EGF (ThermoFisher #17005042) and added 1 μg/mL of puromycin-dihydrochloride (Invitrogen #A11138-03). All cells were cultured at 37° C. in 5% CO2, and were passaged using 0.25% EDTA containing trypsin (Mediatech Inc). A hemocytometer was used to count the cell number. Peptide synthesis reagents were obtained from either Anaspec or AAPPTEC with the highest grade available (>99% purity) and used without further purification. Solvents and other chemical reagents were obtained from Sigma-Aldrich, unless otherwise stated.
(§3) On confocal microscopy, we validated specific peptide reagent binding to human BE cells that express FGFR2.

[6] = target: T1, QhTERT cells that express FGFR2c; test: Confocal fluorescence microscopy, binding to QhTERT cells expressing FGFR2c
Excerpt: as §2, §3

[7] = tested on: QhTERT cells wild type; test: Confocal fluorescence microscopy, binding to wild-type QhTERT cells; set-up: species or system human
Excerpt: as §2, §3

[8] = target: T1, QhTERT cells that express FGFR2c; test: Apparent dissociation constant by flow cytometry; assay type: binding; settings: 0 to 200 nM, 4° C, 1 hour
Protocol: We measured the apparent dissociation constant kd for peptide reagent binding to cells to assess binding affinity.^45 The Cy5.5-labeled peptide reagent was serially diluted in PBS at concentrations ranging from 0 to 200 nM in 25 nM increments. QhTERT/FGFR2c cells (˜10^5) were incubated with peptide at 4° C. for 1 hour, washed with cold PBS, and the mean fluorescence intensities were measured using flow cytometry. The equilibrium dissociation constant kd=1/ka was calculated by performing a least squares fit of the data to the non-linear equation I=(I0+Imaxka[X])/([…]). I0 and Imax are the initial and maximum fluorescence intensities, corresponding to no peptide and at saturation, respectively, and [X] represents the concentration of the bound peptide reagent. Prism 5.0 software (GraphPad Inc) was used to calculate kd.

[9] = tested on: human esophageal specimens (SQ, BE, HGD, EAC); test: Confocal microscopy staining of sections of human esophagus ex vivo; assay type: binding
Protocol: Formalin-fixed sections of human esophageal specimens were deparaffinized, and antigen retrieval was performed using standard methods. Briefly, the sections were incubated in xylene for 3 min 3×, washed with 100% ethanol for 2 min 2×, and washed with 95% ethanol for 2 min 2×. Rehydration was performed by washing in dH2O for 5 min 2×. Antigen unmasking was performed by boiling the slides in 10 mM sodium citrate buffer with 0.05% Tween at pH 6.0, and then maintaining at sub-boiling temperature for 15 min. The slides were cooled for 30 min, and the sections were washed in dH2O for 3 min 3× and in PBS for 5 min. Blocking was performed with DAKO protein blocking agent (X0909, DAKO) for 1 hour at RT. The peptides were incubated at a concentration of 1 μM for 10 min at RT. The sections were washed in PBS for 3 min 3×, and incubated with 1:1000 dilution of monoclonal anti-FGFR2 (Abcam, ab58201) overnight at 4° C.
The sections were then washed in PBS for 5 min 3×. A 1:500 dilution of AF488-labeled secondary antibody (goat anti-mouse) was added to each section and incubated for 30 min at RT. The secondary antibody solution was removed by washing with PBS for 5 min 3×. The sections were then mounted with ProLong Gold reagent containing DAPI (Invitrogen). The mean fluorescence intensities from 3 boxes (dimensions of […]) located completely within the surface epithelium of each specimen were measured. […] Serial sections were processed for routine histology (H&E), and were reviewed by an expert gastrointestinal pathologist (HDA).

[10] = tested on: sections of human esophageal squamous cell cancer (SCC); test: Confocal microscopy staining of human esophageal squamous cell carcinoma sections ex vivo; assay type: binding
Excerpt: We observed good co-localization of peptide reagent and antibody binding on merged images, FIG. 10C. Representative histology (H&E) for SCC is shown, FIG. 10D.

[11] = tested on: sections of human gastric cancer; test: Confocal microscopy staining of human gastric cancer sections ex vivo; assay type: binding
Excerpt: We observed good co-localization of peptide and antibody binding on merged images, FIG. 11C. Representative histology (H&E) for gastric cancer is shown, FIG. S6D.

T1 sequence (P21802 22-821): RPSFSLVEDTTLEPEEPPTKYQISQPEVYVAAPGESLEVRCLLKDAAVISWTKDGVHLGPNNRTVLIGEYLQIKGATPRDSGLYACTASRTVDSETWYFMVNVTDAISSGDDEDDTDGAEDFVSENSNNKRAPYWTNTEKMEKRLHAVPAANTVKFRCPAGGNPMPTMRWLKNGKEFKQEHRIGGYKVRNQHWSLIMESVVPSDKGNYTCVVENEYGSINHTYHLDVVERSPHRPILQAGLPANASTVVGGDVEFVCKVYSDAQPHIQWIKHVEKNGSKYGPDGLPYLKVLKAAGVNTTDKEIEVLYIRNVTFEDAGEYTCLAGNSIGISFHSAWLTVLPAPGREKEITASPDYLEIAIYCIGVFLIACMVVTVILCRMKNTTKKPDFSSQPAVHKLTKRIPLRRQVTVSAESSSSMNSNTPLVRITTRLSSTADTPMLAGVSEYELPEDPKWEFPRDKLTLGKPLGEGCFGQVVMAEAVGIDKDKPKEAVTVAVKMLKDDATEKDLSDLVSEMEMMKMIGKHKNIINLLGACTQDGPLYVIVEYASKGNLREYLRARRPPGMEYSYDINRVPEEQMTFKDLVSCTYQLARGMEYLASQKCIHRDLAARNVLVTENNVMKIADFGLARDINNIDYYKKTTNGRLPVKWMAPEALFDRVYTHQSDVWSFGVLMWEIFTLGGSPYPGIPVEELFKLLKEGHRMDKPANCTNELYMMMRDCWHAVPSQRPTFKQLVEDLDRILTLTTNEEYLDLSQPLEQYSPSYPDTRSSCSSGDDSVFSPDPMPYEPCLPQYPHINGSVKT
T2 sequence (P21802 22-822 isoform P21802-3 limits assumed): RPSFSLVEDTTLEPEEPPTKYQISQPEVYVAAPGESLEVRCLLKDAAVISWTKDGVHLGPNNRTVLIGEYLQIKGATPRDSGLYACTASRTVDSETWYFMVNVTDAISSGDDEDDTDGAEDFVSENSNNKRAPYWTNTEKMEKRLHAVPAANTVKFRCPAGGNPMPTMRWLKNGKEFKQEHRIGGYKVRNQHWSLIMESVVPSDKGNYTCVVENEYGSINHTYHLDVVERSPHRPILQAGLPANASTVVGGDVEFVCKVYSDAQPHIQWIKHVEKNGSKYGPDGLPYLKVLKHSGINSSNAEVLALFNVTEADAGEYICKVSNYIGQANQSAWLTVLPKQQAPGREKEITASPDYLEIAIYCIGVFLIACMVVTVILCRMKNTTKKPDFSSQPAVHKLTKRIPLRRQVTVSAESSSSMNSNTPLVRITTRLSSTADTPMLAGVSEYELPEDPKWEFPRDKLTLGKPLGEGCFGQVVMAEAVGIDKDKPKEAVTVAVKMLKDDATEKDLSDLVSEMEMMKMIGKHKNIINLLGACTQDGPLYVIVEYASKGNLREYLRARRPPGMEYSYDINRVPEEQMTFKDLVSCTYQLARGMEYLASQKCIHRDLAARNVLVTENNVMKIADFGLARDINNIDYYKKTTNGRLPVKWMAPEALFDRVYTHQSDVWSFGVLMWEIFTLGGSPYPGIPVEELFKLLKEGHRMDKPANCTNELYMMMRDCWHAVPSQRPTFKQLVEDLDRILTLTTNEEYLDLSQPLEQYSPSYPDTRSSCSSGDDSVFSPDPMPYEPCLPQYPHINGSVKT

Molecule | phosphorylation of FGFR2 (p-FGFR), AKT (p-AKT) and ERK (p-ERK) [1] | phosphorylation of FGFR2 (p-FGFR), AKT (p-AKT) and ERK (p-ERK) [2] | change in binding (mean fluorescence intensity) of SRR*-Cy5.5 on addition of unlabeled peptide [3] | apparent association time constant k [4] [min⁻¹] | time scale for onset of binding [4] [min] | binding signal on cell surface (confocal microscopy) [5] | binding signal on cell surface (confocal microscopy) [6] | binding signal on cell surface (confocal microscopy) [7] | other results
FGF1: FGF1 (#2232-FA-025, R&D systems), positive control that binds FGFR2b and FGFR2c [reference compound] | to some extent; also recorded: shows phosphorylation activity | strong phosphorylation activity; also recorded: shows phosphorylation activity |  |  |  |  |  |  | 
C[C@H](NC(=O)[C@@H](NC(=O)[C@H](CCCNC(=N)N)NC(=O)[C@H](Cc1ccccc1)NC(=O)[C@H](CO)NC(=O)[C@H](C)NC(=O)[C@@H]1CCCN1C(=O)[C@H](CCCNC(=N)N)NC(=O)[C@H](CCCNC(=N)N)NC(=O)[C@@H](N)CO)[C@@H](C)O)C(=O)N[C@@H](CCCNC(=N)N)C(=O)N[C@@H](CCC(=O)O)C(N)=O (relative stereo) [SRR*, SRRPASFRTARE] | no obvious change | no obvious change | significant reduction; also recorded: significant decrease | 0.16 | 6.2 |  |  |  | 
SRR*-Cy5.5: 12 amino acid sequence SRRPASFRTARE with fluorophore Cy5.5 attached via a GGGSK linker on the C-terminus (not fully specified (C-terminus)) |  |  |  | 0.16 | ~6.2 | strong signal; also recorded: strong binding | strong signal; also recorded: strong binding | minimal signal | mean fluorescence intensity versus control SPS*-Cy5.5 ([5]; compared with wild-type): significantly greater; mean fluorescence intensity versus control SPS*-Cy5.5 ([6]; compared with wild-type): significantly greater; Kd [8]: 68 nM; mean target-to-background (T/B) ratio for HGD and EAC versus BE and SQ ([9]; 3 boxes of 30×30 μm^2): significantly higher; staining (fluorescence intensity) of section ([9]; Barrett's esophagus (BE)): minimal fluorescence intensity; also recorded: minimal staining; staining (fluorescence intensity) of section ([9]; esophageal adenocarcinoma (EAC)): strong signal; also recorded: strong binding; staining (fluorescence intensity) of section ([9]; high-grade dysplasia (HGD)): strong signal; also recorded: strong binding; mean fluorescence intensity from HGD and EAC compared with BE ([9]; n=28, 33, 22, 17 specimens of SQ, BE, HGD, EAC): significantly greater; staining (fluorescence intensity) of section ([9]; squamous (SQ)): minimal fluorescence intensity; also recorded: minimal staining; staining (fluorescence intensity) of section ([10]; human esophageal SCC): strong fluorescence intensity; also recorded: strong binding; staining (fluorescence intensity) of section ([10]; normal human esophagus): minimal fluorescence intensity; also recorded: minimal staining; mean fluorescence intensity from SCC versus normal ([10]; paired, two-sided t-test): significantly greater; staining (fluorescence intensity) of section ([11]; human gastric cancer): strong fluorescence intensity; also recorded: strong binding; staining (fluorescence intensity) of section ([11]; normal human stomach): minimal fluorescence intensity; also recorded: minimal staining; mean fluorescence intensity from gastric cancer versus normal ([11]; paired, two-sided t-test): significantly greater
SPS*-Cy5.5: scrambled sequence SPSRERTFRARA for control, labeled with Cy5.5 via a GGGSK linker (SPSRERTFRARAGGGS-{K(Cy5.5)-NH2}) [reference compound] |  |  |  |  |  | Minimal binding; also recorded: Minimal signal | Minimal binding; also recorded: Minimal signal | Minimal binding; also recorded: Minimal signal | 
SPSRERTFRARA [SPS*, unlabeled scrambled peptide used for control, reference compound] |  |  | No significant difference; also recorded: Non-significant differences |  |  |  |  |  | 
